{"source": "the supplement of paper PMC10307832", "experiment_in_all_cases": "relative viability (nuclei count vs DMSO), 5 days (fraction); higher = more cells survive", "key": {"NCI-H1355": {"tested_on": "NCI-H1355", "outline": "(§1)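 Each reported value is a median over duplicate plates. It expresses relative viability: treated-well nuclei count divided by vehicle-well nuclei count. Lung cancer cell lines in 1536-well plates were dosed by pin tool a day after seeding, alone with one drug or with a fixed anchor-drug dose plus five library-drug doses (not always all listed) in √10 steps, and nuclei were counted after 5 days.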"}, "NCI-H2170": {"tested_on": "NCI-H2170", "outline": "as §1"}, "NCI-H2009": {"tested_on": "NCI-H2009", "outline": "as §1"}, "NCI-H1734": {"tested_on": "NCI-H1734", "outline": "as §1"}, "LOU-NH91": {"tested_on": "LOU-NH91", "outline": "as §1"}, "NCI-H2405": {"tested_on": "NCI-H2405", "outline": "as §1"}, "NCI-H1395": {"tested_on": "NCI-H1395", "outline": "as §1"}, "NCI-H647": {"tested_on": "NCI-H647", "outline": "as §1"}, "HCC-827": {"tested_on": "HCC-827", "outline": "as §1"}, "BEN": {"tested_on": "BEN", "outline": "as §1"}, "HCC-366": {"tested_on": "HCC-366", "outline": "as §1"}}}
{"smiles": "COc1cc2nccc(Oc3ccc(NC(=O)Nc4cc(C)on4)c(Cl)c3)c2cc1OC", "note": "[Tivozanib] + O=C(CCCCCCC(=O)Nc1ccccc1)NO [Vorinostat] (partner 1 µM)", "values": [{"measurement": "relative viability", "setting": "NCI-H1355; first compound 0.005 µM", "value": 0.58}, {"measurement": "relative viability", "setting": "NCI-H1355; first compound 0.01581 µM", "value": 0.612}, {"measurement": "relative viability", "setting": "NCI-H1355; first compound 0.05 µM", "value": 0.68}, {"measurement": "relative viability", "setting": "NCI-H1355; first compound 0.1581 µM", "value": 0.437}, {"measurement": "relative viability", "setting": "NCI-H1355; first compound 0.5 µM", "value": 0.588}, {"measurement": "relative viability", "setting": "NCI-H2170; first compound 0.005 µM", "value": 0.74}, {"measurement": "relative viability", "setting": "NCI-H2170; first compound 0.01581 µM", "value": 0.782}, {"measurement": "relative viability", "setting": "NCI-H2170; first compound 0.05 µM", "value": 0.856}, {"measurement": "relative viability", "setting": "NCI-H2170; first compound 0.5 µM", "value": 0.816}, {"measurement": "relative viability", "setting": "NCI-H2009; first compound 0.005 µM", "value": 0.623}, {"measurement": "relative viability", "setting": "NCI-H2009; first compound 0.01581 µM", "value": 0.785}, {"measurement": "relative viability", "setting": "NCI-H2009; first compound 0.05 µM", "value": 0.741}, {"measurement": "relative viability", "setting": "NCI-H2009; first compound 0.1581 µM", "value": 0.738}, {"measurement": "relative viability", "setting": "NCI-H2009; first compound 0.5 µM", "value": 0.621}, {"measurement": "relative viability", "setting": "NCI-H1734; first compound 0.005 µM", "value": 0.685}, {"measurement": "relative viability", "setting": "NCI-H1734; first compound 0.01581 µM", "value": 0.79}, {"measurement": "relative viability", "setting": "NCI-H1734; first compound 0.05 µM", "value": 0.813}, {"measurement": "relative viability", "setting": "NCI-H1734; first compound 0.1581 µM", "value": 0.578}, {"measurement": "relative viability", "setting": "NCI-H1734; first compound 0.5 µM", "value": 0.57}, {"measurement": "relative viability", "setting": "LOU-NH91; first compound 0.005 µM", "value": 0.754}, {"measurement": "relative viability", "setting": "LOU-NH91; first compound 0.01581 µM", "value": 0.952}, {"measurement": "relative viability", "setting": "LOU-NH91; first compound 0.05 µM", "value": 0.908}, {"measurement": "relative viability", "setting": "LOU-NH91; first compound 0.1581 µM", "value": 0.782}, {"measurement": "relative viability", "setting": "LOU-NH91; first compound 0.5 µM", "value": 0.761}, {"measurement": "relative viability", "setting": "NCI-H2405; first compound 0.005 µM", "value": 0.376}, {"measurement": "relative viability", "setting": "NCI-H2405; first compound 0.01581 µM", "value": 1.03}, {"measurement": "relative viability", "setting": "NCI-H2405; first compound 0.05 µM", "value": 1.05}, {"measurement": "relative viability", "setting": "NCI-H2405; first compound 0.1581 µM", "value": 0.854}, {"measurement": "relative viability", "setting": "NCI-H2405; first compound 0.5 µM", "value": 0.788}, {"measurement": "relative viability", "setting": "NCI-H1395; first compound 0.005 µM", "value": 0.476}, {"measurement": "relative viability", "setting": "NCI-H1395; first compound 0.01581 µM", "value": 0.747}, {"measurement": "relative viability", "setting": "NCI-H1395; first compound 0.05 µM", "value": 0.932}, {"measurement": "relative viability", "setting": "NCI-H1395; first compound 0.1581 µM", "value": 0.58}, {"measurement": "relative viability", "setting": "NCI-H1395; first compound 0.5 µM", "value": 0.424}, {"measurement": "relative viability", "setting": "NCI-H647; first compound 0.005 µM", "value": 0.555}, {"measurement": "relative viability", "setting": "NCI-H647; first compound 0.01581 µM", "value": 0.654}, {"measurement": "relative viability", "setting": "NCI-H647; first compound 0.05 µM", "value": 0.692}, {"measurement": "relative viability", "setting": "NCI-H647; first compound 0.1581 µM", "value": 0.631}, {"measurement": "relative viability", "setting": "NCI-H647; first compound 0.5 µM", "value": 0.48}, {"measurement": "relative viability", "setting": "HCC-827; first compound 0.005 µM", "value": 0.69}, {"measurement": "relative viability", "setting": "HCC-827; first compound 0.01581 µM", "value": 0.851}, {"measurement": "relative viability", "setting": "HCC-827; first compound 0.05 µM", "value": 0.879}, {"measurement": "relative viability", "setting": "HCC-827; first compound 0.1581 µM", "value": 0.854}, {"measurement": "relative viability", "setting": "HCC-827; first compound 0.5 µM", "value": 0.864}, {"measurement": "relative viability", "setting": "BEN; first compound 0.005 µM", "value": 0.577}, {"measurement": "relative viability", "setting": "BEN; first compound 0.01581 µM", "value": 0.572}, {"measurement": "relative viability", "setting": "BEN; first compound 0.05 µM", "value": 0.586}, {"measurement": "relative viability", "setting": "BEN; first compound 0.1581 µM", "value": 0.527}, {"measurement": "relative viability", "setting": "BEN; first compound 0.5 µM", "value": 0.522}, {"measurement": "relative viability", "setting": "HCC-366; first compound 0.005 µM", "value": 0.333}, {"measurement": "relative viability", "setting": "HCC-366; first compound 0.01581 µM", "value": 0.323}]}
